Source: publication PMC7804203, “Targeting adaptor protein SLP76 of RAGE as a therapeutic approach for lethal sepsis” (Nature Communications, 2021)

B1: HMGB1: recombinant mouse HMGB1, Abcam (#ab181949) (protein, UniProt P63158 1-215, looked up)
High mobility group protein B1: MGKGDPKKPRGKMSSYAFFVQTCREEHKKKHPDASVNFSEFSKKCSERWKTMSAKEKGKFEDMAKADKARYEREMKTYIPPKGETKKKFKDPNAPKRPPSAFFLFCSEYRPKIKGEHPGLSIGDVAKKLGEMWNNTAADDKQPYEKKAAKLKEKYEKDIAAYRAKGKPDAAKKGVVKAEKSKKKKEEEDDEEDEEDEEEEEEEEDEDEEEDDDDE
B2: SAM domain of SLP76: synthesized peptide of SLP76 SAM domain used in SPRi (peptide)
peptide: WDPDSLADYFKKLNYKDCEKAVKKYHIDGARFLNLTENDIQKFPKLRVPILSKLSQEINKNEERRSI

Experiments:
[1] = test system: IL-6 secretion, RAW264.7 cells; test: ELISA of IL-6 from RAW264.7 cells pretreated with kinase inhibitors; format: cell-based; set-up: unit not given here
Protocol: (§1) Serum was separated from patient samples for measurement of AGEs with an ELISA kit (#MBS267540, MyBioSource, San Diego, CA, USA) according to the manufacturer’s instructions. […] Then, cultured cells were incubated with or without AGEs (100 μg/ml) for 12 h, and the supernatant was collected for the measurement of TNF (#MTA00B) and IL-6 (#M6000B) levels with ELISA kits (R&D Systems, Minneapolis, MN, USA) according to the manufacturer’s instructions.

[2] = test system: TNF secretion, RAW264.7 cells; test: ELISA of TNF from RAW264.7 cells pretreated with kinase inhibitors; format: cell-based
Protocol: as §1

[3] = test system: IKKα/β phosphorylation, BMDMs; test: Western blot, IKKα/β phosphorylation in WT or SLP76-/- BMDMs stimulated with HMGB1; format: cell-based, mice; conditions: relative to WT Ctrl = 1
Protocol: (§2) Cultured cells in 6-well plates were harvested, washed twice with PBS, and lysed for 30 min on ice in 150 μl of cell lysis buffer (#9803) from CST (Boston, MA, USA) containing 1 mM PMSF and 2 μg/ml leupeptin. Proteins were quantified with the BCA method. Protein samples were resolved by 10% SDS-PAGE, transferred to a nitrocellulose (NC) membrane (#GE10600002), and blocked for 1 h with 5% nonfat milk in Tris-buffered saline containing 0.1% Tween 20 (TBST) at room temperature. After incubation with a specific primary antibody overnight at 4 °C, the membrane was washed with TBST three times. Then, the membrane was incubated with a secondary antibody for 1 h at room temperature. Enhanced chemiluminescence (ECL) (#32109, Thermo Fisher Scientific, Waltham, MA, USA) was used to visualize the protein bands, and images were acquired in a ChemiDoc™ Imaging System (Bio-Rad, Hercules, CA, USA). Each experiment was repeated at least three times.
(§3) BMDMs were isolated from WT, AGER knockout, and SLP76 knockout mice. Mice were euthanized, and the femur and tibia were isolated and sterilized in 70% ethanol for 15 s and then washed with PBS. A 25-gauge needle was used to flush out the bone marrow with DMEM supplemented with 1% FBS. Bone marrow cells were passed through a cell strainer (70 μm), washed with PBS, and plated into a […] dish at a density of 1 × 10^7 cells/10 ml medium. BMDMs were grown in DMEM supplemented with 10% FBS and M-CSF (#130-094-129) (20 ng/ml) at 37 °C, and the medium was refreshed on day 3. After growth for 7 days, the cells were ready for use in subsequent experiments.

[4] = test system: p38 MAPK phosphorylation, BMDMs; test: Western blot, p38 MAPK phosphorylation in WT or SLP76-/- BMDMs stimulated with HMGB1; format: cell-based, mice; conditions: for Relative p38 MAPK phosphorylation, Supplementary figure 12a: relative to WT Ctrl = 1
Protocol: as §2, §3

[5] = test system: ERK1/2 phosphorylation, BMDMs; test: Western blot, ERK1/2 phosphorylation in WT or SLP76-/- BMDMs stimulated with HMGB1; format: cell-based, mice; conditions: relative to WT Ctrl = 1
Protocol: as §2, §3

cytosolic tail of RAGE = test: SPRi binding affinity of SAM domain peptide to RAGE cytosolic tail peptide; conditions: synthetic peptides, SAM 250, 500, 1000, 2000 nM, TBS pH 7.5, n=4
Protocol: To measure the binding affinity of the cytosolic tail of RAGE with the SAM domain of SLP76, a PlexArray HT A100 (Plexera, USA) was used to monitor the whole procedure in real time. Briefly, a chip with well-prepared biomolecular microarray was assembled with a plastic flow cell for sample loading. The synthesized peptide of RAGE cytosolic tail was prepared at 5 mM concentration in Tris-buffered saline (TBS) running buffer (20 mM Tris and 100 mM NaCl [pH 7.5]), and a 10 mM glycine-HCl buffer (pH 2.0) was used as regeneration buffer. The synthesized peptide of SLP76 SAM domain flowed at increasing concentrations (250, 500, 1000, 2000 nM). Binding data were collected and analyzed by a commercial SPRi analysis software (Plexera SPR Data Analysis Module, Plexera, USA).

[6] = AGEs-, inhibitor alone, replicate Exp1
[7] = AGEs-, inhibitor alone, replicate Exp2
[8] = AGEs-, inhibitor alone, replicate Exp3
[9] = inhibitor 1 h, then AGEs 100 μg/ml 12 h, replicate Exp1
[10] = inhibitor 1 h, then AGEs 100 μg/ml 12 h, replicate Exp2
[11] = inhibitor 1 h, then AGEs 100 μg/ml 12 h, replicate Exp3
[12] = AGEs-, inhibitor alone, replicate Exp1, in pg/mL
[13] = AGEs-, inhibitor alone, replicate Exp3, in pg/mL
[14] = inhibitor 1 h, then AGEs 100 μg/ml 12 h, replicate Exp1, in pg/mL
[15] = inhibitor 1 h, then AGEs 100 μg/ml 12 h, replicate Exp2, in pg/mL
[16] = inhibitor 1 h, then AGEs 100 μg/ml 12 h, replicate Exp3, in pg/mL
[17] = AGEs-, inhibitor alone, replicate Exp2, in pg/mL

Molecule | IL-6 level in culture medium [1, 6] | IL-6 level in culture medium [1, 7] | IL-6 level in culture medium [1, 8] | IL-6 level in culture medium [1, 9] | IL-6 level in culture medium [1, 10] | IL-6 level in culture medium [1, 11] | TNF level in culture medium [2, 12] | TNF level in culture medium [2, 13] | TNF level in culture medium [2, 14] | TNF level in culture medium [2, 15] | TNF level in culture medium [2, 16] | TNF level in culture medium [2, 17] | further results
COc1cccc(-c2cc(=O)c3ccccc3o2)c1N [PD98059] | 7.69 | 0 | 2.224 | 19.112 | 12.03 | 16.667 | 26.755 | 9.578 | 1779.92 | 1294.03 | 1283.56 |  | TNF level in culture medium [2, 7]: 0 pg/mL
COc1cc(O)c2c(c1)oc(=O)c1c3cc(O)c(O)cc3oc21 [NF-kB inhibitor] | 8.8 | 7.706 | 6.631 | 22.657 | 39.53 | 43.441 | 256.62 | 441.431 | 3097.6 | 4273.53 | 5262.53 | 271.706 | 
C[S+]([O-])c1ccc(-c2nc(-c3ccncc3)c(-c3ccc(F)cc3)[nH]2)cc1 (centres unmarked) [SB203580] | 3.021 | 5.813 | 3.214 | 30.327 | 52.19 | 33.459 | 86.693 | 72.783 | 2106.86 | 5252.19 | 5785.62 | 25.813 | 
B1 |  |  |  |  |  |  |  |  |  |  |  |  | Relative IKKα/β phosphorylation, Supplementary figure 12c ([3]; SLP76-/-, Exp1): 0.8306; Relative IKKα/β phosphorylation, Supplementary figure 12c ([3]; SLP76-/-, Exp2): 2.523; Relative IKKα/β phosphorylation, Supplementary figure 12c ([3]; SLP76-/-, Exp3): 0.8014; Relative IKKα/β phosphorylation, Supplementary figure 12c ([3]; WT, Exp1): 3.067; Relative IKKα/β phosphorylation, Supplementary figure 12c ([3]; WT, Exp2): 3.67; Relative IKKα/β phosphorylation, Supplementary figure 12c ([3]; WT, Exp3): 5.409; Activation of proinflammatory signaling pathways ([4]; HMGB1 400 ng/ml, 15 min, p38 MAPK, ERK1/2, IKKα/β, text says RAW264.7 cells, figure BMDMs): activated proinflammatory signaling pathways via SLP76; Relative p38 MAPK phosphorylation, Supplementary figure 12a ([4]; SLP76-/-, Exp1): 2.8038; Relative p38 MAPK phosphorylation, Supplementary figure 12a ([4]; SLP76-/-, Exp2): 3.004; Relative p38 MAPK phosphorylation, Supplementary figure 12a ([4]; SLP76-/-, Exp3): 2.223; Relative p38 MAPK phosphorylation, Supplementary figure 12a ([4]; WT, Exp1): 7.041; Relative p38 MAPK phosphorylation, Supplementary figure 12a ([4]; WT, Exp2): 4.728; Relative p38 MAPK phosphorylation, Supplementary figure 12a ([4]; WT, Exp3): 5.924; Relative ERK1/2 phosphorylation, Supplementary figure 12b ([5]; SLP76-/-, Exp1): 7.033; Relative ERK1/2 phosphorylation, Supplementary figure 12b ([5]; SLP76-/-, Exp2): 9.087; Relative ERK1/2 phosphorylation, Supplementary figure 12b ([5]; SLP76-/-, Exp3): 4.787; Relative ERK1/2 phosphorylation, Supplementary figure 12b ([5]; WT, Exp1): 15.3469; Relative ERK1/2 phosphorylation, Supplementary figure 12b ([5]; WT, Exp2): 12.0882; Relative ERK1/2 phosphorylation, Supplementary figure 12b ([5]; WT, Exp3): 9.928
B2 |  |  |  |  |  |  |  |  |  |  |  |  | Binding to cytosolic tail of RAGE (cytosolic tail of RAGE): dose-dependent binding
